How the values were obtained:
Assay type in all cases: in vivo
[1] = test system: barnyardgrass (Echinochloa crus-galli L.): ECHCG; assay: Test Example 1 pre-emergence herbicidal activity, ECHCG; details: visually observed 20th to 23rd day after application
How it was run: (§1)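 Upland soil pot test. Formulated compound (wettable powder or emulsifiable concentrate) in water, 500 L/ha, sprayed one day after sowing before emergence; % control rated by eye on day 20–23.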

[2] = test system: crabgrass (Digitaria sanguinalis L.): DIGSA; assay: Test Example 1 pre-emergence herbicidal activity, DIGSA; details: visually observed 20th to 23rd day after application
How it was run: as §1

[3] = test system: green foxtail (Setaria viridis L.): SETVI; assay: Test Example 1 pre-emergence herbicidal activity, SETVI; details: visually observed 20th to 23rd day after application
How it was run: as §1

[4] = test system: redroot pigweed (Amaranthus retroflexus L.): AMARE; assay: Test Example 1 pre-emergence herbicidal activity, AMARE; details: visually observed 20th to 23rd day after application
How it was run: as §1

[5] = test system: prickly sida (Sida spinosa L.): SEDSP; assay: Test Example 1 pre-emergence herbicidal activity, SIDSP; details: visually observed 20th to 23rd day after application
How it was run: as §1

[6] = test system: velvetleaf (Abutilon theophrasti): ABUTH; assay: Test Example 1 pre-emergence herbicidal activity, ABUTH; details: visually observed 20th to 23rd day after application
How it was run: as §1

[7] = test system: rice (Oryza sativa L.): ORYSA; assay: Test Example 1 pre-emergence herbicidal activity, ORYSA; details: visually observed 20th to 23rd day after application
How it was run: as §1

[8] = test system: wheat (Triticum aestivum L.): TRZAX; assay: Test Example 1 pre-emergence herbicidal activity, TRZAX; details: visually observed 20th to 23rd day after application
How it was run: as §1

[9] = test system: corn (Zea mays L.): ZEAMX; assay: Test Example 1 pre-emergence herbicidal activity, ZEAMX; details: visually observed 20th to 23rd day after application
How it was run: as §1

[10] = test system: soybean (Glycine max Merr.): GLXMA; assay: Test Example 1 pre-emergence herbicidal activity, GLXMA; details: visually observed 20th to 23rd day after application
How it was run: as §1

[11] = test system: barnyardgrass (Echinochloa crus-galli L.), ECHCG; assay: Test Example 2 post-emergence (foliage treatment) herbicidal activity, ECHCG; details: 63 g a.i./ha
How it was run: (§2)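 Leaf stages at treatment differed per species: 1.1-2.1 for ECHCG, 1.0-2.0 for DIGSA, 0.1-1.5 for AMARE and 1.0-2 for ORYSA. Plants grew in pots of upland soil and were sprayed with wettable powder or emulsifiable concentrate in water (500 L/ha) plus spreader at 0.1% (v/v). Visual % control followed on days 20-23.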

[12] = test system: crabgrass (Digitaria sanguinalis L.), DIGSA; assay: Test Example 2 post-emergence (foliage treatment) herbicidal activity, DIGSA; details: 63 g a.i./ha
How it was run: as §2

[13] = test system: green foxtail (Setaria viridis L.), SETVI; assay: Test Example 2 post-emergence (foliage treatment) herbicidal activity, SETVI; details: 63 g a.i./ha
How it was run: (§3)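 Each species was evaluated for growth suppression by eye, 0% matching untreated and 100% meaning death, some 20 to 23 days after a single post-emergence foliar treatment applied in 500 L/ha of water carrying 0.1% (v/v) agricultural spreader.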

[14] = test system: prickly sida (Sida spinosa L.), SIDSP; assay: Test Example 2 post-emergence (foliage treatment) herbicidal activity, SIDSP; details: 63 g a.i./ha
How it was run: as §3

[15] = test system: velvetleaf (Abutilon theophrasti), ABUTH; assay: Test Example 2 post-emergence (foliage treatment) herbicidal activity, ABUTH; details: 63 g a.i./ha
How it was run: as §3

[16] = test system: rice (Oryza sativa L.), ORYSA; assay: Test Example 2 post-emergence (foliage treatment) herbicidal activity, ORYSA; details: 63 g a.i./ha
How it was run: as §2

[17] = test system: wheat (Triticum aestivum L.), TRZAX; assay: Test Example 2 post-emergence (foliage treatment) herbicidal activity, TRZAX; details: 63 g a.i./ha
How it was run: as §3

[18] = test system: corn (Zea mays L.), ZEAMX; assay: Test Example 2 post-emergence (foliage treatment) herbicidal activity, ZEAMX; details: 63 g a.i./ha
How it was run: as §3

[19] = test system: soybean (Glycine max Merr.), GLXMA; assay: Test Example 2 post-emergence (foliage treatment) herbicidal activity, GLXMA; details: 63 g a.i./ha
How it was run: as §3

[20] = test system: barnyardgrass (Echinochiloa oryzicola: ECHOR); assay: Test Example 3 water application herbicidal activity (paddy), ECHOR; details: 63 g a.i./ha, water application under submerged condition at 0.5 leaf stage, visually observed 14th day after application; 0 = untreated control, 100 = complete kill
Excerpt: (§4) Paddy field soil was put into a 1/1,000,000 ha pot and seeds of barnyardgrass (Echinochiloa oryzicola: ECHOR) and japanese bulrush (Scirpus juncoides: SCPJO) were sown and slightly covered with soil. Then the pot was left to stand still in a greenhouse in a state where the depth of flooding water was from 0.5 to 1 cm, and one day later, tubers of japanese ribbon wapato (Sagittaria pygmaea: SA GPY) were planted. Thereafter, the depth of flooding water was maintained at a level of from 3 to 4 cm, and when barnyardgrass and japanese bulrush reached a 0.5 leaf stage, an aqueous diluted solution of a wettable powder or emulsifiable concentrate having the compound of the present invention formulated in accordance with a usual formulation method, was uniformly applied under submerged condition by a pipette so that the dose of the active ingredient would be at a predetermined level. On the other hand, paddy filed soil was put into a 1/1,000,000 ha pot and puddled and leveled, and the depth of flooding water was from 3 to 4 cm. One day later, rice (Oryza sativa L.: ORYSA) of 2 leaf stage was transplanted in a depth of 3 cm. On the 4th day after the transplantation, the compound of the present invention was applied in the same manner as described above. On the 14th day after the application of the herbicide, the growth of barnyardgrass, japanese burlush and japanese ribbon wapato was visually observed and on the 21st day after the application of the herbicide, the growth of rice was visually observed, and the herbicidal effects were evaluated by growth controlling degrees (%) ranging from 0 (equivalent to the untreated control) to 100 (complete kill), whereby the results shown in Table 6, were obtained. Compound Nos. in Table 6 correspond to Compound Nos. in Table 1 and 2 given hereinbefore.

[21] = test system: japanese bulrush (Scirpus juncoides: SCPJO); assay: Test Example 3 water application herbicidal activity (paddy), SCPJO; details: 63 g a.i./ha, water application under submerged condition at 0.5 leaf stage, visually observed 14th day after application; 0 = untreated control, 100 = complete kill
Excerpt: as §4

[22] = test system: japanese ribbon wapato (Sagittaria pygmaea: SA GPY); assay: Test Example 3 water application herbicidal activity (paddy), SAGPY; details: 63 g a.i./ha, water application under submerged condition, tubers planted, visually observed 14th day after application; 0 = untreated control, 100 = complete kill
Excerpt: as §4

[23] = test system: rice (Oryza sativa L.: ORYSA); assay: Test Example 3 water application herbicidal activity (paddy), transplanted rice ORYSA; details: 63 g a.i./ha, water application 4th day after transplantation of 2 leaf stage rice, visually observed 21st day after application; 0 = untreated control, 100 = complete kill
Excerpt: as §4

[24] = test system: redroot pigweed (Amaranthus retroflexus L.), AMARE; assay: Test Example 2 post-emergence (foliage treatment) herbicidal activity, AMARE; details: 63 g a.i./ha
How it was run: as §2

Row | Compound | Pre-emergence Herbicidal Activity ECHCG (growth controlling degree) ([1]; Rate 63 g a.i./ha) [%] | Pre-emergence Herbicidal Activity DIGSP (growth controlling degree) ([2]; Rate 63 g a.i./ha) [%] | Pre-emergence Herbicidal Activity SETVI (growth controlling degree) ([3]; Rate 63 g a.i./ha) [%] | Pre-emergence Herbicidal Activity AMARE (growth controlling degree) ([4]; Rate 63 g a.i./ha) [%] | Pre-emergence Herbicidal Activity SIDSP (growth controlling degree) ([5]; Rate 63 g a.i./ha) [%] | Pre-emergence Herbicidal Activity ABUTH (growth controlling degree) ([6]; Rate 63 g a.i./ha) [%] | Pre-emergence Herbicidal Activity ORYSA (growth controlling degree) ([7]; Rate 63 g a.i./ha) [%] | Pre-emergence Herbicidal Activity TRZAX (growth controlling degree) ([8]; Rate 63 g a.i./ha) [%] | growth controlling degree, ECHCO [11] [%] | growth controlling degree, DIGSP [12] [%] | growth controlling degree, SETVI [13] [%] | growth controlling degree, SIDSP [14] [%] | growth controlling degree, ABUTH [15] [%] | growth controlling degree, ORYSA [16] [%] | growth controlling degree, TRZAX [17] [%] | growth controlling degree, ZEAMX [18] [%] | growth controlling degree, GLXMA [19] [%] | growth controlling degrees (%) ECHOR [20] [%] | growth controlling degrees (%) SCPJO [21] [%] | growth controlling degrees (%) ORYSA [23] [%] | further results
1 | COCC(=O)Nc1c(OC)c(Cl)cc(F)c1-c1nn(C)c(OC(F)F)c1Cl [Compound 1-16] | 100 | 100 | 100 | 100 | 100 | 100 | 40 | 10 | 80 | 80 | 100 | 100 | 100 | 80 | 50 | 70 | 95 | 100 | 98 | 70 | Pre-emergence Herbicidal Activity ZEAMX (growth controlling degree) ([9]; Rate 63 g a.i./ha): 40%; Pre-emergence Herbicidal Activity GLXMA (growth controlling degree) ([10]; Rate 63 g a.i./ha): 10%; growth controlling degrees (%) SAGPY [22]: 100%
2 | [3-chloro-6-[4-chloro-5-(difluoromethoxy)-1-methyl-1H-pyrazol-3-yl]-5-fluoro-2-methoxyphenyl]2-propynyl-formamide [Compound 1-7] | – | – | – | – | – | – | – | – | 50 | 10 | 70 | 100 | 100 | 40 | 10 | 40 | 50 | 95 | 60 | 20 | Pre-emergence Herbicidal Activity ECHCG (growth controlling degree) ([1]; Rate 125 g a.i./ha): 70%; Pre-emergence Herbicidal Activity DIGSP (growth controlling degree) ([2]; Rate 125 g a.i./ha): 100%; Pre-emergence Herbicidal Activity SETVI (growth controlling degree) ([3]; Rate 125 g a.i./ha): 95%; Pre-emergence Herbicidal Activity AMARE (growth controlling degree) ([4]; Rate 125 g a.i./ha): 100%; Pre-emergence Herbicidal Activity SIDSP (growth controlling degree) ([5]; Rate 125 g a.i./ha): 90%; Pre-emergence Herbicidal Activity ABUTH (growth controlling degree) ([6]; Rate 125 g a.i./ha): 80%; Pre-emergence Herbicidal Activity ORYSA (growth controlling degree) ([7]; Rate 125 g a.i./ha): 20%; Pre-emergence Herbicidal Activity TRZAX (growth controlling degree) ([8]; Rate 125 g a.i./ha): 20%; Pre-emergence Herbicidal Activity ZEAMX (growth controlling degree) ([9]; Rate 125 g a.i./ha): 0%; Pre-emergence Herbicidal Activity GLXMA (growth controlling degree) ([10]; Rate 125 g a.i./ha): 10%; growth controlling degrees (%) SAGPY [22]: 0%
3 | CCCOC(=O)Nc1c(OC)c(Cl)cc(F)c1-c1nn(C)c(OC(F)F)c1Cl [Compound 1-72] | 98 | 100 | 100 | 100 | 100 | 100 | 40 | 40 | 80 | 80 | – | 100 | 100 | 60 | 20 | 40 | 70 | 100 | 60 | – | Pre-emergence Herbicidal Activity ZEAMX (growth controlling degree) ([9]; Rate 63 g a.i./ha): 10%; Pre-emergence Herbicidal Activity GLXMA (growth controlling degree) ([10]; Rate 63 g a.i./ha): 0%; growth controlling degree, AMARE [24]: 100%; growth controlling degrees (%) SAGPY [22]: 100%
4 | COc1c(Cl)cc(F)c(-c2nn(C)c(OC(F)F)c2Cl)c1NC(=O)OCC(C)C [Compound 1-64] | 40 | 90 | 80 | 100 | 80 | 60 | 10 | 10 | 90 | 70 | 100 | 100 | 100 | 30 | 30 | 30 | 50 | 100 | 70 | 40 | Pre-emergence Herbicidal Activity ZEAMX (growth controlling degree) ([9]; Rate 63 g a.i./ha): 0%; Pre-emergence Herbicidal Activity GLXMA (growth controlling degree) ([10]; Rate 63 g a.i./ha): 0%; growth controlling degree, AMARE [24]: 100%
5 | Cn1nc(-c2c(F)cc(Cl)c(OC(F)F)c2N(C=O)Cc2ccccc2)c(Cl)c1OC(F)F [Compound 1-86] | – | – | – | – | – | – | – | – | 0 | 30 | 10 | 60 | 0 | 0 | 0 | 0 | 40 | 60 | 50 | 10 | Pre-emergence Herbicidal Activity ECHCG (growth controlling degree) ([1]; Rate 125 g a.i./ha): 0%; Pre-emergence Herbicidal Activity DIGSP (growth controlling degree) ([2]; Rate 125 g a.i./ha): 0%; Pre-emergence Herbicidal Activity SETVI (growth controlling degree) ([3]; Rate 125 g a.i./ha): 0%; Pre-emergence Herbicidal Activity AMARE (growth controlling degree) ([4]; Rate 125 g a.i./ha): 30%; Pre-emergence Herbicidal Activity SIDSP (growth controlling degree) ([5]; Rate 125 g a.i./ha): 0%; Pre-emergence Herbicidal Activity ABUTH (growth controlling degree) ([6]; Rate 125 g a.i./ha): 0%; Pre-emergence Herbicidal Activity ORYSA (growth controlling degree) ([7]; Rate 125 g a.i./ha): 0%; Pre-emergence Herbicidal Activity TRZAX (growth controlling degree) ([8]; Rate 125 g a.i./ha): 0%; Pre-emergence Herbicidal Activity ZEAMX (growth controlling degree) ([9]; Rate 125 g a.i./ha): 0%; Pre-emergence Herbicidal Activity GLXMA (growth controlling degree) ([10]; Rate 125 g a.i./ha): 0%; growth controlling degree, AMARE [24]: 100%

From patent publication US20050245399A1, “Pyrazole derivatives as herbicidal compositions containing them” (ISHIHARA SANGYO KAISHA, LTD., priority 2004, published 2005)
